Assay results: ChEMBL document CHEMBL1201862, “PubChem BioAssay data set” (2004)
Calls of active or inactive are those of the source.

Experiments:
H9c2 = test: cells; assay type: functional, cell-based; conditions: Rattus norvegicus, H9c2, Myocardium;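 note: confirmatory concentration-response retest of ultra-high-throughput screening hits for modulation of myocardial damage; cell death induced by hydrogen peroxide oxidative stress; compound pretreatment for 60 min then peroxide exposure for 2 h; potency is for protecting the cells against peroxide damage rather than for killing them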
[1] = biological target: T1, Endoribonuclease toxin MazF (Escherichia coli K-12, UniProt P0AE70); test: MazF toxin RNase activators, dose response, biochemical, fluorescence, single-stranded RNA substrate, uHTS hits (AID 588481); assay type: functional
T1 sequence (P0AE70 whole entry): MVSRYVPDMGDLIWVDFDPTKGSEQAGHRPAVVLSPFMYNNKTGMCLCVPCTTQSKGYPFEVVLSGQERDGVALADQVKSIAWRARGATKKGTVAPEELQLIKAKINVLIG

[2] = biological target: T1, Endoribonuclease toxin MazF; test: fluorescent RNA oligo signal without MazF, dose response, counter-screen for MazEF activator project, biochemical, fluorescence, single-stranded RNase substrate (AID 588502); assay type: functional
[3] = biological target: T2, Replicative DNA helicase DnaB (Mycobacterium tuberculosis, UniProt P9WMR3); test: DnaB intein splicing inhibitors, dose response, biochemical, cell-free fluorescence (AID 449749); assay type: functional
T2 sequence (P9WMR3 whole entry): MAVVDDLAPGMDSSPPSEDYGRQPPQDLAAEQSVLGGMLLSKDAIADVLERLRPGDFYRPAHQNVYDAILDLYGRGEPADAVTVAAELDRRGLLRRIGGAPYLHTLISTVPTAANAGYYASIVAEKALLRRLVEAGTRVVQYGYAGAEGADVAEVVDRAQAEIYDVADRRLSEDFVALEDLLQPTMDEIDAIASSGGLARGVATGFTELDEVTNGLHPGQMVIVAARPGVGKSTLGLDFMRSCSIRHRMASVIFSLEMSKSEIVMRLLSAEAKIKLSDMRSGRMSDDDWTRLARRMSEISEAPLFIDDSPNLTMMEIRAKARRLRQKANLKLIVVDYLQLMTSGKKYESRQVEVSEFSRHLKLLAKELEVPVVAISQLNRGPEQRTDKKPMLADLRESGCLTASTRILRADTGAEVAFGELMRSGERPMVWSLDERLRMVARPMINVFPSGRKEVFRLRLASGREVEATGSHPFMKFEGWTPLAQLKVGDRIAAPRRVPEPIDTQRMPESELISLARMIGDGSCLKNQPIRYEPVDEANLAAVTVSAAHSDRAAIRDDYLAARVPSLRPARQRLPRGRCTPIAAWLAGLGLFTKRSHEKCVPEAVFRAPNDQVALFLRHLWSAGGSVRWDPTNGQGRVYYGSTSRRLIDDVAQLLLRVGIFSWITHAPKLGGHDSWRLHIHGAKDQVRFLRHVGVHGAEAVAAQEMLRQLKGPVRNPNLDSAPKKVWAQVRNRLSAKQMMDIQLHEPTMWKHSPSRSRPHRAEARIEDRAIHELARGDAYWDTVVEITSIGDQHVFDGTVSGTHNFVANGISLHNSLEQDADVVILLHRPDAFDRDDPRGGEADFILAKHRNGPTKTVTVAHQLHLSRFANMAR

Protein RecA = biological target: T3, Protein RecA (Mycobacterium tuberculosis, UniProt P9WHJ3); test: Fluorescence Cell-Free Homogeneous Dose Retest to Identify Inhibitors of RecA-Intein Splicing Activity. [Related pubchem assays (depositor defined):AID2097, AID2223, AID489010, AID492950]; assay type: functional
T3 sequence (P9WHJ3 whole entry): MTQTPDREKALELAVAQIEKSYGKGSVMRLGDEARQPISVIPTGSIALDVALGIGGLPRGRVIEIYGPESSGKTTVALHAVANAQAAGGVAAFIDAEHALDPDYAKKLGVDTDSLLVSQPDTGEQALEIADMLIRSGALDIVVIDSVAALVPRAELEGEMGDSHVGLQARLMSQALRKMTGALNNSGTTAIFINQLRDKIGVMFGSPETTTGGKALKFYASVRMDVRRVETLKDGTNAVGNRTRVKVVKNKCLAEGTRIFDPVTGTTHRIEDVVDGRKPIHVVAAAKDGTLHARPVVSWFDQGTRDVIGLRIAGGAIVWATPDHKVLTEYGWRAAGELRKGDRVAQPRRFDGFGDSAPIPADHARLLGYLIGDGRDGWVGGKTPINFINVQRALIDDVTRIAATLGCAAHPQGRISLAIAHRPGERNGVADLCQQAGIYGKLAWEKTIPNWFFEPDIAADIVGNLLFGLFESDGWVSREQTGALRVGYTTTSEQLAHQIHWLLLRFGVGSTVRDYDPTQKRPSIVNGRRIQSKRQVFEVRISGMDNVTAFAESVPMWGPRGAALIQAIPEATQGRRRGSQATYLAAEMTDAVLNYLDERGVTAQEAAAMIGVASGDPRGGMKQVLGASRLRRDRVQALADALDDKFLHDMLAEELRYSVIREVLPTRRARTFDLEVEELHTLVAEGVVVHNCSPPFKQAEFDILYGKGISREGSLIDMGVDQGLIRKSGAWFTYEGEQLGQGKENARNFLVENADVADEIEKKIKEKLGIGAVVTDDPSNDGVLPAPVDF

[4] = biological target: Eukaryotic translation initiation factor 4E (Mus musculus, UniProt P63073); test: eIF4E–eIF4G protein interaction inhibitors, dose response, biochemical, TR-FRET (AID 855); assay type: functional;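 note: potency for disrupting eIF4E binding to eIF4GI seen as loss of FRET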
[5] = biological target: Induced myeloid leukemia cell differentiation protein Mcl-1 (Homo sapiens, UniProt Q07820); assay type: functional
[6] = HEp-2 cell cytotoxicity, dose response, cytotoxicity control for RSV inhibitor project, HTS (AID 2410); assay type: functional; conditions: human respiratory syncytial virus
[7] = biological target: T4, Rac GTPase-activating protein 1 (Homo sapiens, UniProt Q9H0H5); test: MgcRacGAP GTPase-activating activity inhibitors, confirmation, biochemical, ADP Hunter fluorescence, primary and confirmatory (AID 624330); assay type: functional
T4 sequence (Q9H0H5 whole entry): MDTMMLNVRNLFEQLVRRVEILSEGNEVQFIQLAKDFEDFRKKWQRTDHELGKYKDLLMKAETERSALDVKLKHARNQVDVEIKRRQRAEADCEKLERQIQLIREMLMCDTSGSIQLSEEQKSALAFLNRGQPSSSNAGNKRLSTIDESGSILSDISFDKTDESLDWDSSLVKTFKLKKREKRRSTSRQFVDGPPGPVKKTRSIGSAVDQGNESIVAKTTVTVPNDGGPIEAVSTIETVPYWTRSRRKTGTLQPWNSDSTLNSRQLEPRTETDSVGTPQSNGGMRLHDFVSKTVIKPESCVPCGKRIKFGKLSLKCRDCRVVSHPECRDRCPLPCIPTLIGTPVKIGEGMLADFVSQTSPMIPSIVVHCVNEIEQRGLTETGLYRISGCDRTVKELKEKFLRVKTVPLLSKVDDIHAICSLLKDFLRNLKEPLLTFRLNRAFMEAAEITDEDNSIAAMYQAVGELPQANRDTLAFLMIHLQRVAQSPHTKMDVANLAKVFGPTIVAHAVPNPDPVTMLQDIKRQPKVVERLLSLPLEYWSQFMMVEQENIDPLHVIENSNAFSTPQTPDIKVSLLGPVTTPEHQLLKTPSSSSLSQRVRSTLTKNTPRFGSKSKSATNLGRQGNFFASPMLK

Streptococcus = test: Group A Streptococcus viability loss, dose response, counter-screen for streptokinase expression inhibitor project, luminescence, BacTiterGlo (AID 1915); assay type: functional, organism-based;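 note: potency for reduction of bacterial viability or growth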
Streptokinase A = biological target: T5, Streptokinase A (Streptococcus pyogenes serotype M1, UniProt P10520); test: S. pyogenes streptokinase expression inhibitors, potency, dose response, plasminogen activation absorbance, OD405 (AID 1914); assay type: functional, Streptococcus pyogenes M1 GAS;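 note: secreted streptokinase activity via plasminogen activation per viability signal from cell pellet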
T5 sequence (P10520 whole entry): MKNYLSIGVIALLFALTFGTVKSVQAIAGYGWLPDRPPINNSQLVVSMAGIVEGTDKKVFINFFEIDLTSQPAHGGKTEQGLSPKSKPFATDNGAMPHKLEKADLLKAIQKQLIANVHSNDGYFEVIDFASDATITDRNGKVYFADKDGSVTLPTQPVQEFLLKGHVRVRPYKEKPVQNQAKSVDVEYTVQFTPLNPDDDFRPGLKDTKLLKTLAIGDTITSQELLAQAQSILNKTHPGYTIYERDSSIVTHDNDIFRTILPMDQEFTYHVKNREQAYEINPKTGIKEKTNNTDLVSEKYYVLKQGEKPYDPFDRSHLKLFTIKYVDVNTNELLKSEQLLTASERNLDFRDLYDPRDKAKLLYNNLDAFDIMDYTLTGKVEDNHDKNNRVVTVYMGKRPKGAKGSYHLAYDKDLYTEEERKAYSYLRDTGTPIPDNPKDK

Cytochrome P450 1A2 = biological target: T6, Cytochrome P450 1A2 (Homo sapiens, UniProt P05177);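 note: PubChem cytochrome P450 panel assay, CYP1A2 panel member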
T6 sequence (P05177 whole entry): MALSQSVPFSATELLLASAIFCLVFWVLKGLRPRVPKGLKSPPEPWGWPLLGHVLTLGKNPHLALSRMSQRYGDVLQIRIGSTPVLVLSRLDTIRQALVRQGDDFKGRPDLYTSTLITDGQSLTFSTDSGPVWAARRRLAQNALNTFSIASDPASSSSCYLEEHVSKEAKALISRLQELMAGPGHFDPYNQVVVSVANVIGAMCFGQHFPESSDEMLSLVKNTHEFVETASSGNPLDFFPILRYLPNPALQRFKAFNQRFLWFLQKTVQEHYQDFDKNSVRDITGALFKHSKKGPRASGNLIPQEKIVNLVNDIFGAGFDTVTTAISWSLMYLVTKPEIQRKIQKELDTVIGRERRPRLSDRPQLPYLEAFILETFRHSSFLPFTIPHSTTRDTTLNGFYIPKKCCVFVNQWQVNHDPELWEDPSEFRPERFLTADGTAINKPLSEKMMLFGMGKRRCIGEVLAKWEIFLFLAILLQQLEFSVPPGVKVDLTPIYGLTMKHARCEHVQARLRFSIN

[8] = biological target: T7, Corticotropin-releasing factor receptor 2/Corticotropin-releasing factor-binding protein (Homo sapiens, UniProt P24387+Q13324); test: activators of CRF receptor 2 with binding protein – uHTS hits, confirmation (AID 602473); assay type: functional; conditions: read-out: EC50_Mean
T7 sequence (Q13324 whole entry): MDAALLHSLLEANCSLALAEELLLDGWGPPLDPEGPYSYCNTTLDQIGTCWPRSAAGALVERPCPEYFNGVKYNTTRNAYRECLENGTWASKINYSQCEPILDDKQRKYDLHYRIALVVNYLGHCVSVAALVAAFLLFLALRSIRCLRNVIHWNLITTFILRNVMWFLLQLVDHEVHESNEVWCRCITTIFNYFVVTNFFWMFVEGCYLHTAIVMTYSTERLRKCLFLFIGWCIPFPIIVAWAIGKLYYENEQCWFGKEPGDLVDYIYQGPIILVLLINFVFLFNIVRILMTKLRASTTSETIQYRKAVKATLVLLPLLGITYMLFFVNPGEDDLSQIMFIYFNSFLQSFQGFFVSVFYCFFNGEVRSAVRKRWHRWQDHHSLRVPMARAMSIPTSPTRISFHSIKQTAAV
T7 sequence (P24387 whole entry): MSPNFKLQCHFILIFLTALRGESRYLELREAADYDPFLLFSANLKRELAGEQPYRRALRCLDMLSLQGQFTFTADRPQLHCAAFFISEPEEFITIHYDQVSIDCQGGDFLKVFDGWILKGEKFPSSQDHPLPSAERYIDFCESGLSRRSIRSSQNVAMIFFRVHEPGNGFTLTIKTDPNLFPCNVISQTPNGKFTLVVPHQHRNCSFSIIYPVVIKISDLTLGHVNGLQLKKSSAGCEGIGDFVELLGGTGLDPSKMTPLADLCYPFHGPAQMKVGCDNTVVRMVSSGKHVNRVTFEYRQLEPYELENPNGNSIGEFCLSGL

Eukaryotic translation initiation factor 4E, sequence (P63073 whole entry): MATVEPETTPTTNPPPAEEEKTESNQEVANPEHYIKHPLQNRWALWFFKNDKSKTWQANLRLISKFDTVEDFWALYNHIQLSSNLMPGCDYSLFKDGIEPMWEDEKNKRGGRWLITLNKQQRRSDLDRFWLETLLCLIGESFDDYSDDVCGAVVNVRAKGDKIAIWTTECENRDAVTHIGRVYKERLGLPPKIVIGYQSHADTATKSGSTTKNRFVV
Induced myeloid leukemia cell differentiation protein Mcl-1, sequence (Q07820 whole entry): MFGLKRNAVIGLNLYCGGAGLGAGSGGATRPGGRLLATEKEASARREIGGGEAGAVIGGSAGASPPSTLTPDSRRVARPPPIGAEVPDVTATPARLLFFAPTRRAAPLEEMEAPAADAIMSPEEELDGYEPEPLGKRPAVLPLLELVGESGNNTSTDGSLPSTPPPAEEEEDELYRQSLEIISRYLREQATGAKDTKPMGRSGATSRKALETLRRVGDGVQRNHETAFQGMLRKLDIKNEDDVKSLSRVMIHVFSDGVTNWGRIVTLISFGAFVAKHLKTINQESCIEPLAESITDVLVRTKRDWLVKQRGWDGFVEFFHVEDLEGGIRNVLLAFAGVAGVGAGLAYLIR

Compound: O=c1cc(CSc2nc(O)c3ccccc3n2)c2ccc(O)cc2o1
- IC50 (H9c2): > 79 µM (inactive)

Compound: CSc1nc(O)c2c3c(sc2n1)CCC3
- IC50 (H9c2): > 79 µM (inactive)

Compound: CCN(CC)CCn1c(=O)n(-c2ccc(Cl)cc2)c(=O)c2c3c(sc21)CN(C)CC3
- EC50 [1]: > 99 µM (inactive)
- EC50 [2]: > 99 µM (inactive)

Compound: CCOc1ccc(S(=O)(=O)NCc2cccnc2)cc1C
- AC50 [3]: > 380 µM (inactive)
- EC50 (Protein RecA): > 380 µM (inactive)

Compound: CC(=O)OC1=C(C#N)Cn2ccc3cccc1c32
- IC50 [4]: > 64 µM (inactive)

Compound: CN(C)c1ccc(NC(=O)c2ccc([N+](=O)[O-])cc2Cl)cc1
- IC50 [5]: 1.11 µM (not active)

Compound: Cn1cccc1/C=C1\SC(=O)N(c2ccccc2)C1=O
- EC50 [1]: > 99 µM (inactive)
- EC50 [2]: 32 µM (inactive)

Compound: CCN1C(=S)SC(=O)C1=C1C=C(C)OC(C)=C1
- EC50 [1]: > 99 µM (inactive)
- EC50 [2]: > 99 µM (inactive)

Compound: N#C/C(=C\Nc1ccc2c(c1)OCCO2)c1nc2ccccc2[nH]1
- IC50 (H9c2): > 79 µM (inactive)
- CC50 [6]: 21.4 µM (active)

Compound: Cc1ccc(S[C@@H](CCN2CC[C@H](C)CCC2=O)c2ccccc2)cc1
- AC50 [3]: 5.34 µM (active)
- EC50 (Protein RecA): 17.6 µM (active)

Compound: Nc1ccc2[nH]c(-c3ccc(Cl)cc3)nc2c1
- IC50 [7]: 37.8 µM (active)
- EC50 (Streptococcus): > 150 µM (not active)
- IC50 [5]: 8.16 µM (not active)
- EC50 (Streptokinase A): > 150 µM (not active)

Compound: CC1(C)CC2=Nc3nn(-c4ccccc4)c(O)c3C(c3ccc4c(c3)OCO4)C2=C(O)C1 (configuration not stated)
- AC50 [3]: 66.1 µM (active)
- EC50 (Protein RecA): 24 µM (active)

Compound: CC(NC(=O)c1cc2c(=O)n(C)c3ccccc3c2n1C)c1ccc2c(c1)OCCO2 (configuration not stated)
- IC50 (H9c2): > 79 µM (inactive)

Compound: Cc1ccc(NS(=O)(=O)c2cc(-c3nnc(O)c4ccccc34)ccc2C)cc1
- IC50 (H9c2): 14.7 µM (active)

Compound: CC(NC(=O)c1ccc(Cn2cc([N+](=O)[O-])cn2)o1)c1ccccc1 (configuration not stated)
- IC50 [4]: > 64 µM (inactive)
- AC50 (Cytochrome P450 1A2): 17.8 µM (inconclusive)

Compound: O=C(CCc1nc(O)c2ccccc2n1)OCc1nnc(-c2ccccc2)o1
- IC50 (H9c2): 13 µM (active)

Compound: Cc1ccc([N+](=O)[O-])cc1-c1ccc2cccc(C)c2n1
- IC50 [4]: > 64 µM (inactive)

Compound: CC(C)(C)OC(=O)NCc1ccc(NC(=O)c2[nH]cnc2C(=O)NCCCCCCNC(=O)c2nc[nH]c2C(=O)Nc2ccc(CNC(=O)OC(C)(C)C)cc2)cc1
- IC50 (H9c2): > 79 µM (inactive)

Compound: Cc1cccc2cc(/C=N/NC(=O)c3ccccc3O)c(Cl)nc12
- IC50 [5]: 5.52 µM (active)
- EC50 [8]: > 53 µM (inactive)

Compound: CCN1C(=O)[C@H]2[C@@H](c3ccc(-c4ccc(C(C)=O)cc4)cc3)N[C@@](C)(C(=O)OC)[C@H]2C1=O
- IC50 (H9c2): > 79 µM (inactive)
